{"source": "patent US12628750B2", "about": "“Plant cell chromosome doubling by application of electromagnetic field” (SYNGENTA CROP PROTECTION AG, priority 2020, dated 2026)", "key": {"[1]": {"system": "transgenic tobacco (Nicotiana tabacum) BY-2 cell line", "experiment": "Cell viability by trypan blue staining in synchronized BY-2 cells", "assay_type": "cell-based", "description": "(§1) The transgenic tobacco (Nicotiana tabacum) BY-2 cell line was obtained from RIKEN BioResource Research Center (epd.brd.riken.jp/en/). This cell line expresses green fluorescent protein (“GFP”) fused to tobacco α-tubulin. See F. Kumagai, et al., Fate of nascent microtubules organized at the M/G1 interface, as visualized by synchronized tobacco BY02 cells stably expressing GFP-tubulin: Time-sequence observations of the reorganization of cortical microtubules in living plant cells, PLANT & CELL PHYS. 42:723-732 (2001). When viewed with a fluorescence microscope, the microtubules fluoresce and enable visualization of microtubule polymerization, including, e.g., spindle fiber and phragmoplast formation during cell division. The BY-GT16 cells were grown in modified LS media supplemented with 0.2 mg/L of 2,4-D. The cells were maintained in the dark at 27° C. on a rotary shaker at 130 rpm, with sub-culturing at 7-day intervals.\nTo aid visualization and increase the likelihood of observing a plurality of cells undergoing mitosis after S-phase, the BY-GT16 cells were synchronized. To do so, […] of 7-day old suspension culture was transferred into 14 mL of BY-2 media (recipes below in Example 4). To the new suspension, 14 μL aphidicolin (5 mg/mL) was added, and the suspension was incubated in the dark for 24 hours at 25° C. on a rotary shaker at 130 rpm. After incubation, the aphidicolin was removed by washing ten times with 16 mL of sterile BY-2 medium. At the end of the last wash, the cells were resuspended in 16 mL of fresh BY-2 medium and returned the washed suspension to the incubator. BY-2 cells reach maximum mitotic index after approximately eight hours. Generally, peak numbers of cells with phragmoplasts were observed approximately eleven hours after washing. Thus, the plurality of cells was reasonably synchronized.\nAfter washing the aphidicolin from the cells, the cells were permitted to restart normal cellular processes for six hours (i.e., the cells were “released”). Next, the population of synchronized cells were prepared for placement in an EMF apparatus (FIG. 1). At that point, 775 μL of cell culture was placed into a 4 mm electroporation cuvette, which was held in place in the cavity of the apparatus using a plastic frame. The plastic frame was designed to fit inside a cavity of the apparatus and was created by 3D-printing. The frame was designed to be placed inside the cavity such that the electrodes (210 and 220) from the Amplifier (200) are able to stably contact the rigid surfaces of the metal plates (Terminals 310 and 320) defining the Cavity (300), which in this instance was configured to hold the cuvette (FIG. 1). The Function Generator (100) was connected to the amplifier and was used to control the frequency (kHz) and field intensity (effective V/cm in the cuvette) of the applied EMF. An optional Oscilloscope (400) was also attached to the positive electrode (210) at the point of contact with the metal plate (310) of the Cavity (FIG. 2). The oscilloscope monitored the sinusoidal variation of the EMF applied to the cells in the cuvette as a function of time.\nFor the time period between Hours 7 and 11 after mitotic release of the cells, the EMF was applied to the cells in the cuvette (for a total duration of four hours). After application, the Function Generator (100) was turned off and the cells were removed for viability staining and phragmoplast observation. The remaining cells were fixed in paraformaldehyde for later observation.\nTo determine at what frequency or range of frequencies the BY-2 mitotic structures would be susceptible to the effects of the EMF, frequency tests were conducted in pairs with controls. The controls included a “No Treatment” control where no EMF was applied over the course of several sessions (see “Date of Experiment” column). Since EMF is generated via application of an AC voltage, in some tests, the controls included the application of a corresponding DC voltage. […]"}, "[2]": {"system": "haploid, diploid and interspecific hybrid embryos and seedlings", "conditions": "cited from earlier work"}, "[3]": {"system": "BMS cell culture", "experiment": "Nuclear ploidy analysis (Sysmex Ploidy Analyzer) of BMS cell suspension culture after treatment", "assay_type": "cell-based", "description": "A BMS cell culture was obtained and maintained in liquid MS media supplemented with 2 mg/L of 2,4-D as described in Green and Phillips (1975). Five to seven days after subculture, the liquid cell culture was placed in a […] gap electroporation cuvette and exposed to EMF application at a frequency of 275 kHz, intensity of 25 V/cm, for a duration of 18 hours with constant shaking at room temperature to disrupt spindle fiber formation and interfere with mitosis. For each treatment, three other tests were also setup from the same culture: (i) 1.25 mM colchicine-treatment, (ii) no treatment culture in an electroporation cuvette, and (iii) no treatment culture that remained in the incubator flask. This duration allows for DNA replication without cell division, thereby causing chromosome doubling.\nTo measure doubling immediately after treatment, cell culture was prepared for nuclear ploidy analysis first by protoplasting cells for 3 hours in plant protoplast digest/wash buffer (Sigma-Aldrich® D9692) containing 1% cellulase R-10 (GoldBio™ C8001.0001) and 0.1% macerozyme R-10 (GoldBio™ M8002.0001) at 25 C with shaking at 120 rpm. After protoplasting, cells were pelleted by centrifugation at 14000 rpm for 1 min in a tabletop microcentrifuge and protoplast buffer was removed with a pipette. The cells were then resuspended by pipetting in 400 μl of nuclei extraction buffer (Sysmex®, CyStain® UV Precise P Nuclei Extraction Buffer, 05-5002) and mixed with 800 μl of nuclei staining solution (Sysmex®, CyStain® UV Precise P Staining Buffer, 05-5002). The stained nuclei were then passed through a 30 μm filter (Sysmex®, Non-sterile CellTrics® Filter, Green, 04-0042-2316) into the collection cuvette, and the filter rinsed with an additional 800 μl of nuclei staining solution. The cuvette was then loaded into a Sysmex® Ploidy Analyzer (CyFlow® Ploidy Analyzer, equipped with UV LED 365 nm laser) and data obtained for the entirety of the sample. Untreated BMS cell culture typically has 2-3 ploidy peaks, consistent with the majority of cells existing in a stable ploidy state (peak 1), and a minority of cells being in the process of mitosis and containing double the standard ploidy state (peak 2). […] The increase in the proportion of cells represented in the higher level peaks (3 and 4) was associated with a decrease in cells in the lower level peaks (1 and 2), providing direct evidence that field treatment doubled the genomes of cells moving them from peaks 1 and 2 into the category of peaks 3 and 4 (Table 4). To determine whether this change in the relative proportions of cell culture ploidy levels was statistically significant, eight experimental replicates were averaged and the values compared with pairwise T-tests (Table 5 and Table 6)."}, "[4]": {"system": "transgenic tobacco (Nicotiana tabacum) BY-2 cell line", "experiment": "Phragmoplast count by confocal microscopy in synchronized GFP-tubulin BY-2 cells", "assay_type": "cell-based", "conditions": "1.25 mM colchicine; n=3; * p≤0.05 vs No EMF", "description": "as §1\nTo aid visualization and increase the likelihood of observing a plurality of cells undergoing mitosis after S-phase, the BY-GT16 cells were synchronized. […]\nAfter washing the aphidicolin from the cells, the cells were permitted to restart normal cellular processes for six hours (i.e., the cells were “released”). […] The oscilloscope monitored the sinusoidal variation of the EMF applied to the cells in the cuvette as a function of time. […]"}, "[5]": {"conditions": "1.25 mM colchicine, trypan blue"}, "[6]": {"conditions": "1.25 mM colchicine, 18 hours, single replicates"}}, "note": "Several values for one entry are separate records, joined by “and”; a condition that tells them apart may be missing. Equal values may be shown once."}
{"smiles": "COc1cc2c(c(OC)c1OC)-c1ccc(OC)c(=O)cc1[C@@H](NC(C)=O)CC2", "note": "[Colchicine, colchicine]", "values": [{"measurement": "Loss of viability compared to EMF treated cells", "setting": "[1]; 1.25 mM colchicine vs 250 and 275 kHz EMF", "result": "higher loss of viability"}, {"measurement": "Average Viability (Normalized)", "setting": "[1]; 1.25 mM colchicine, n=3", "result": 101, "unit": "%"}, {"measurement": "Viability (Normalized to Control)", "setting": "[1]; 1.25 mM colchicine, normalized to no treatment control", "result": "112.4% and 94.1% and 95.4%"}, {"measurement": "Dead Cells (Per 3 vertical columns)", "setting": "[1]; [5]", "result": "87 and 112 and 120"}, {"measurement": "Live Cells (Per 3 vertical columns)", "setting": "[1]; [5]", "result": "732 and 740 and 766"}, {"measurement": "Viability (% Live)", "setting": "[1]; [5]", "result": "89.4% and 86.9% and 86.5%"}, {"measurement": "survival rate after chromosome doubling with colchicine", "setting": "[2]", "result": "less than 100%"}, {"measurement": "fertility after chromosome doubling with colchicine", "setting": "[2]; usually", "result": "less than 50%"}, {"measurement": "Proportion of Cells in Each Ploidy Peak (%): Peak 1", "setting": "[3]; [6]", "result": "38.88% and 11.65% and 11.29% and 27.74% and 26.54% and 19.87% and 35.15% and 33.87%"}, {"measurement": "Proportion of Cells in Each Ploidy Peak (%): Peak 2", "setting": "[3]; [6]", "result": "57.77% and 59.12% and 74.64% and 57.21% and 57.50% and 58.10% and 54.88% and 53.99%"}, {"measurement": "Proportion of Cells in Each Ploidy Peak (%): Peak 3", "setting": "[3]; [6]", "result": "3.35% and 26.77% and 13.43% and 13.56% and 15.34% and 20.30% and 8.73% and 11.35%"}, {"measurement": "Proportion of Cells in Each Ploidy Peak (%): Peak 4", "setting": "[3]; [6]", "result": "0.00% and 2.46% and 0.64% and 1.49% and 0.62% and 1.72% and 1.23% and 0.79%"}, {"measurement": "Avg Peak1%", "setting": "[3]; average of 8 replicates", "result": 25.62, "unit": "%"}, {"measurement": "Avg Peak2%", "setting": "[3]; average of 8 replicates", "result": 59.15, "unit": "%"}, {"measurement": "Avg Peak3%", "setting": "[3]; average of 8 replicates", "result": 14.10, "unit": "%"}, {"measurement": "Avg Peak4%", "setting": "[3]; average of 8 replicates", "result": 1.12, "unit": "%"}, {"measurement": "Cells of higher genome content compared to untreated controls (flask or cuvette)", "setting": "[3]; pairwise T-tests, 8 replicates", "result": "significantly more cells of higher genome content"}, {"measurement": "Average Phragmoplasts (Normalized)", "setting": "[4]", "result": "1.0*"}]}
